Tests used:
H1944 cells = test: MTT assay, viability of H1944 cells; format: cell-based; details: Homo sapiens, NCI-H1944, 72 h, three days, read-out: IC50 against the viability
Experimental: (§1) Cells were seeded into 96-well plates at a density of 1-2 × 10^3 cells/well and incubated for 24 h. Cells were treated with vehicle or various concentrations of test compounds for two (PC9 and PC9/ER cells) or three (other cells) days. Cells were further incubated with MTT solution (final concentration of 500 μg/mL) for 4 h at 37 °C. The formazan products were dissolved in dimethyl sulfoxide (DMSO), and the absorbance was measured at 570 nm. The data are presented as a percentage of the control group.

H460 cells = test: MTT assay, viability of H460 cells; format: cell-based; details: Homo sapiens, NCI-H460, 72 h, three days, read-out: IC50 against the viability
Experimental: as §1

H460/PmR cells = test: MTT assay, viability of pemetrexed-resistant H460/PmR cells; format: cell-based; details: Homo sapiens, NCI-H460, 72 h, three days, read-out: IC50 against the viability
From the text: Human lung cancer cell lines (A549, H1299, H1993, H1944, H226B, H226Br, H460, H522, HCC15, and PC9), a diploid human lung fibroblast cell line (Wi38), and the Lewis lung carcinoma (LLC) cell line were purchased from the American Type Culture Collection (ATCC, Manassas, VA, USA) or kindly provided by Dr. John V. Heymach (MD Anderson Cancer Center, Houston, TX, USA). Human retinal pigment epithelial (RPE) cells were kindly provided by Dr. Jeong Hun Kim (College of Medicine, Seoul National University, Seoul, Republic of Korea). HT-22 cells were provided by Dr. Dong Gyu Jo (College of Pharmacy, Sungkyunkwan University, Suwon, Republic of Korea). Lung cancer cells were cultured in RPMI 1640 medium supplemented with 10% fetal bovine serum (FBS) and antibiotics (Welgene, Gyeongsan-si, Republic of Korea). LLC, HT-22, and Wi38 cells were maintained in DMEM supplemented with 10% FBS and antibiotics. RPE cells were maintained in DMEM/F12 supplemented with 10% FBS and antibiotics. […]
Cells were seeded into 96-well plates at a density of 1-2 × 10^3 cells/well and incubated for 24 h. […] The formazan products were dissolved in dimethyl sulfoxide (DMSO), and the absorbance was measured at 570 nm. […]

97 tested kinases = test: Kinome-wide inhibition profiling (KINOMEscan, TREEspot); format: binding, human; details: 10 µM, > 65% inhibition
[1] = test system: H1944 and A549 xenograft tumors; test: NSCLC xenograft tumor model; format: in vivo, NOD/SCID mice; details: 80 mg/kg
Experimental: All animal experiments were performed according to protocols approved by the Seoul National University Institutional Animal Care and Use Committee. Mice were fed standard mouse chow and water ad libitum and housed in temperature- and humidity-controlled facilities with a 12-h light/12-h dark cycle. For xenograft experiments, H1944 and A549 cells (1×10^6 cells/spot, diluted in equal amounts of PBS and Matrigel) were subcutaneously injected into the right flank of 6-week-old non-obese diabetic-severe combined immunodeficiency (NOD/SCID) mice. After the tumor volume reached 50-150 mm^3, the mice were randomly grouped and treated with vehicle [10% DMSO in 60% polyethylene glycol (PEG) 400 solution] or LL6 (80 mg/kg) 6 days per week for 2 weeks. Tumor growth was determined by measuring the short and long diameters of the tumor with a caliper, and body weight was measured once or twice per week to monitor toxicity. Additionally, to evaluate the effect of LL6 on mutant Kras-driven lung tumorigenesis, 2-month-old Kras^G12D/+ transgenic mice were randomized and treated with vehicle or LL6 (80 mg/kg) for 8 weeks. The mice were euthanized, and tumor formation was evaluated and compared with that of the vehicle-treated control group. Microscopic evaluations of the H&E-stained lung tissue were also performed to measure mean tumor number (N) and volume (V) in a blinded fashion. The number and size of tumors were calculated in five sections uniformly distributed throughout each lung. In both animal experiments, the tumor volume and burden of each sample were calculated using the following formulas: Tumor volume (mm^3) = (short diameter)^2 × (long diameter) × 0.5; Tumor burden (mm^3) = number of tumors × the average of tumor volume.

Src = test: Western blot, phosphorylation of Src in H1944 and A549 cells; format: cell-based, human; details: 2.5 μM
Experimental: Before harvesting, the cells were stimulated with 10% FBS for 20 min. […] Equal amounts of protein (20 μg) were subjected to 8% SDS-PAGE and electrically transferred onto polyvinylidene difluoride membranes (Bio-Rad Laboratories, Hercules, CA, USA). Membranes were blocked with blocking buffer (3% BSA in Tris-buffered saline containing 0.1% Tween-20 [TBST]) for 1 h at room temperature. The membranes were incubated with primary antibodies diluted in 3% BSA in TBST (1:1,000) overnight at 4 °C, washed multiple times with TBST, and incubated with secondary antibodies diluted in 3% nonfat dry milk in TBST (1:5,000) for 1 h at room temperature. The membranes were washed multiple times with TBST and visualized using an enhanced chemiluminescence detection kit (Thermo Fisher Scientific). Densitometric analysis was performed using ImageJ software.

NSCLC cells = test: Transwell migration assay; format: cell-based, human; details: concentration-dependent, 8-12 h after treatment
[2] = test system: H1944 and A549 NSCLC cells; test: Apoptosis (PARP cleavage, chromatin condensation, sub-G1 phase); format: cell-based, human; details: LL6 2.5 µM; LDB = linsitinib 2 µM, dasatinib 50 nM, bemcentinib 100 nM
Experimental: Before harvesting, the cells were stimulated with 10% FBS for 20 min. Total cell lysates were prepared with modified radioimmunoprecipitation assay lysis buffer (50 mM Tris-HCl [pH 7.4], 150 mM NaCl, 1 mM EDTA, 0.25% sodium deoxycholate, 1% Triton X-100, 100 mM NaF, 5 mM Na3VO4, 1 mM PMSF, 1 μg/mL aprotinin, 1 μg/mL leupeptin, and 1 μg/mL pepstatin). Equal amounts of protein (20 μg) were subjected to 8% SDS-PAGE and electrically transferred onto polyvinylidene difluoride membranes (Bio-Rad Laboratories, Hercules, CA, USA). Membranes were blocked with blocking buffer (3% BSA in Tris-buffered saline containing 0.1% Tween-20 [TBST]) for 1 h at room temperature. The membranes were incubated with primary antibodies diluted in 3% BSA in TBST (1:1,000) overnight at 4 °C, washed multiple times with TBST, and incubated with secondary antibodies diluted in 3% nonfat dry milk in TBST (1:5,000) for 1 h at room temperature. The membranes were washed multiple times with TBST and visualized using an enhanced chemiluminescence detection kit (Thermo Fisher Scientific). Densitometric analysis was performed using ImageJ software.

[3] = test system: Wi38, RPE, and HT-22 cells; test: MTT assay, viability of normal cells; format: cell-based, human, mouse
Experimental: as §1

Water solubility = format: physicochemical

- IC50 (H1944 cells): 1.02 µM
- IC50 (H460 cells): 3.43 µM
- IC50 (H460/PmR cells): 3.64 µM
- water solubility (Water solubility): poor
SMILES: Nc1ncnc2c1c(-c1ccc(Cl)cc1)nn2CCn1cc(COc2ccc(Nc3nccc(Nc4cnc5ccccc5c4)n3)cc2)nn1 [LL6]
- S-score (97 tested kinases): 0.12
- tumor growth and weight ([1]; H1944 and A549 xenografts, 6 days per week for 2 weeks): significantly reduced
- expression of phosphorylated IGF-1R and Src in tumors ([1]; Western blot of xenograft tumors): substantially suppressed
- body weight ([1]; xenograft-bearing mice): minimal changes
- activation (phosphorylation) of Src (Src): efficiently suppressed
- migration of NSCLC cells (NSCLC cells): effectively suppressed
- proapoptotic effects (PARP cleavage, chromatin condensation, sub-G1 phase) [2]: notably induced apoptosis
- cytotoxicity in normal cells compared with the LDB combination [3]: markedly less cytotoxicity

From article PMC7778606, “Development of the phenylpyrazolo[3,4-d]pyrimidine-based, insulin-like growth factor receptor/Src/AXL-targeting small molecule kinase inhibitor” (Theranostics, 2021)
